Consider 24 compounds from patent publication US20250179059A1 (The Regents of the University of California, priority 2021, published 2025).

Read-outs that look alike come from different tables or passages of the source. Where only a bound is given, the exact number is not on record here.

Assay [1] has as its system human SKM-1 acute myeloid leukemia cells. The experiment in a line: SKM-1 antiproliferation cell-based assay (ATPlite). The conditions noted are these: Homo sapiens. In outline: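 Log-phase cells in RPMI 1640/15% FBS were seeded at 34722 cells/mL and exposed for 4 days to nine-concentration DMSO serial dilutions in triplicate. Viability was read as ATP luminescence (ATPlite 1step), and IC50 values came from variable-slope non-linear regression.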

Assay [2] deals with T1, human BRD4 bromodomain II (Homo sapiens, UniProt O60885).
T1 construct: human BRD4 bromodomain II [based on Genbank NM_058243, residues 349-460]; host or cells: E. coli
The experiment in a line: Bromodomain binding assay (AlphaScreen), BRD4 BDII. In outline: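 AlphaScreen competition: His6-BRD4 BDI (aa 44-170) or BDII (aa 349-460) vs biotin-H4(1-21) K5/K8/K12/K16Ac peptide; Ni-chelate acceptor/streptavidin donor beads. HEPES pH 7.5, NaCl, CHAPS, BSA, 1% DMSO; RT. 10-pt 3-fold titration, % peptide binding fitted → IC50.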
On the technique in general: Bead proximity is the source of the signal in Alpha formats.

The mark [3] stands for this setting: SKM-1, 96 h, SKM-1 antiproliferation assay, 4 days, Table C2.
Setting [4] is: AlphaScreen assay, Table C2, read-out: BRD4 BDII IC50.
Where [5] appears, read: SKM-1, SKM-1 antiproliferation assay.
Setting [6] is: BRD4 BDII AlphaScreen assay, read-out: BRD4 BD2 IC50.

On to `Cn1ccn(-c2ccc(-c3cc(F)cc(-c4cc(N5CC[C@H](N)C5)c5nc[nH]c5c4)c3O)cc2Cl)c1=O` [Example 533, (S)-1-(3′-(4-(3-aminopyrrolidin-1-yl)-1H-benzo[d]imidazol-6-yl)-3-chloro-5′-fluoro-2′-hydroxy-[1,1′-biphenyl]-4-yl)-3-methyl-1H-imidazol-2(3H)-one], for which the GI50 (as a rule, the concentration that inhibits growth by half) in assay [1] (setting [3]) lay within 0.3 to 30 nM. In addition, the IC50 (commonly the concentration that gives 50% inhibition) in assay [2] (setting [4]) was in the range of 1 to 10 nM.

In turn, `CN1CCC12CCCN(c1cc(-c3cc(F)cc(-c4ccc(-n5ccn(C)c5=O)c(Cl)c4)c3O)ccn1)C2` (stereo not drawn) [Example 693, 1-(3-chloro-5′-fluoro-2′-hydroxy-3′-(2-(1-methyl-1,6-diazaspiro[3.5]nonan-6-yl)pyridin-4-yl)-[1,1′-biphenyl]-4-yl)-3-methyl-1H-imidazol-2(3H)-one] displayed a GI50 in assay [1] (setting [3]) of 0.3 to 30 nM. In addition, the IC50 in assay [2] (setting [4]) was in the range of 0.01 to 1 nM.

In turn, `COc1ncc(-c2cc(F)cc(-c3ccc(-n4ccn(C)c4=O)c(Cl)c3)c2O)cc1N1CC[C@]2(CCN2C(C)C)C1` [Example 903] showed a GI50 in assay [1] (setting [5]) of 0.3 to 30 nM. In assay [2] (setting [6]), the IC50 was in the range of 0.01 to 1 nM.

`CC(C)N1CCN(c2cc(-c3cc(F)cc(-c4ccc(-n5ccn(C)c5=O)c(Cl)c4)c3O)cc(=O)n2C)CC1` [Example 717, 4-(3′-chloro-5-fluoro-2-hydroxy-4′-(3-methyl-2-oxo-2,3-dihydro-1H-imidazol-1-yl)-[1,1′-biphenyl]-3-yl)-6-(4-isopropylpiperazin-1-yl)-1-methylpyridin-2(1H)-one] came in with a GI50 in assay [1] (setting [3]) of 0.3 to 30 nM. Moreover, the half-maximal inhibitory concentration (IC50) in assay [2] (setting [4]) lay in the range of 0.01 to 1 nM.

In assay [1] (setting [5]), `CCc1ncc(-c2cc(F)cc(-c3ccc(-n4ccn(C)c4=O)c(Cl)c3)c2O)cc1N1CC[C@@](C)(O)C1` [Example 852, (R)-1-(3-Chloro-3′-(6-ethyl-5-(3-hydroxy-3-methylpyrrolidin-1-yl)pyridin-3-yl)-5′-fluoro-2′-hydroxy-[1,1′-biphenyl]-4-yl)-3-methyl-1H-imidazol-2(3H)-one] had a GI50 of 0.3 to 30 nM. The IC50 in assay [2] (setting [6]) fell in the range of 0.01 to 1 nM.

In assay [1] (setting [5]), `CCc1cc(-c2cc(F)cc(-c3cccc(N4CCN(C(C)(C)C)CC4)c3)c2O)cc(Cl)c1-n1ccn(C)c1=O` [Example 929, 1-(3″-(4-(tert-butyl)piperazin-1-yl)-3-chloro-5-ethyl-5′-fluoro-2′-hydroxy-[1,1′:3′,1″-terphenyl]-4-yl)-3-methyl-1H-imidazol-2(3H)-one] showed a concentration for 50% growth inhibition (GI50) of 300 to 3000 nM. In assay [2] (setting [6]), the IC50 was more than 100 nM.

For the compound `Cn1ccn(-c2ccc(-c3cc(F)cc(-c4ccnc(N5CCC(N)(CO)C5)c4)c3O)cc2Cl)c1=O` (stereo not drawn) [Example 750, 1-(3′-(2-(3-amino-3-(hydroxymethyl)pyrrolidin-1-yl)pyridin-4-yl)-3-chloro-5′-fluoro-2′-hydroxy-[1,1′-biphenyl]-4-yl)-3-methyl-1H-imidazol-2(3H)-one], the GI50 in assay [1] (setting [3]) was 0.3 to 30 nM. In assay [2] (setting [4]), the IC50 was in the range of 0.01 to 1 nM.

On to `CC(C)N1CCCC12CCN(c1cc(-c3cc(F)cc(-c4ccc(-n5ccn(C)c5=O)c(Cl)c4)c3O)cnc1N(C)C)C2` (stereo not drawn) [Example 969, 1-(3-chloro-3′-(6-(dimethylamino)-5-(1-isopropyl-1,7-diazaspiro[4.4]nonan-7-yl)pyridin-3-yl)-5′-fluoro-2′-hydroxy-[1,1′-biphenyl]-4-yl)-3-methyl-1H-imidazol-2(3H)-one], for which the GI50 in assay [1] (setting [5]) is 30 to 300 nM. Also, the IC50 in assay [2] (setting [6]) lay in the range of 1 to 10 nM.

In assay [1] (setting [3]), `O=C1CCCCN1c1ccc(-c2cc(F)cc(-c3ccnc(N4CCNCC4)c3)c2O)cc1F` [Example 280, 1-(3,5′-difluoro-2′-hydroxy-3′-(2-(piperazin-1-yl)pyridin-4-yl)-[1,1′-biphenyl]-4-yl)piperidin-2-one] yielded a GI50 of 300 to 3000 nM. The half-inhibitory concentration (IC50) in assay [2] (setting [4]) is 10 to 100 nM.

`Cc1cc(-c2ccc(-n3ccn(C)c3=O)c(F)c2)c(O)c(-c2cccc(N3CCN(C(C)(C)C)CC3)c2)n1` [Example 1003, 1-(4-(2-(3-(4-(tert-butyl)piperazin-1-yl)phenyl)-3-hydroxy-6-methylpyridin-4-yl)-2-fluorophenyl)-3-methyl-1H-imidazol-2(3H)-one] displayed a 50% growth inhibitory concentration (GI50) in assay [1] (setting [5]) of 0.3 to 30 nM. Besides, the IC50 in assay [2] (setting [6]) lay in the range of 1 to 10 nM.

On to `CN1CCN(c2ccc(-c3cccc(-c4ccc5[nH]c6c(c5c4)CNCC6)c3O)cc2Cl)C1=O` [Example 369, 1-(3-chloro-2′-hydroxy-3′-(2,3,4,5-tetrahydro-1H-pyrido[4,3-b]indol-8-yl)-[1,1′-biphenyl]-4-yl)-3-methylimidazolidin-2-one], for which the GI50 in assay [1] (setting [3]) was not below 3000 nM. Further, the IC50 in assay [2] (setting [4]) was in the range of 10 to 100 nM.

`CC(=O)Nc1ccc(-c2cccc(-c3cccc(N4CCNC(=O)C4)c3)c2O)cc1F` [Example 254, N-(3-fluoro-2′-hydroxy-3″-(3-oxopiperazin-1-yl)-[1,1′:3′,1″-terphenyl]-4-yl)acetamide] returned a GI50 in assay [1] (setting [3]) not below 3000 nM. Further, in assay [2] (setting [4]), the IC50 was in the range of 10 to 100 nM.

In assay [1] (setting [3]), `CC(=O)Nc1ccc(-c2cccc(-c3ccnc(N4CC5(CNC5)C4)c3)c2O)cc1F` [Example 270, N-(3′-(2-(2,6-diazaspiro[3.3]heptan-2-yl)pyridin-4-yl)-3-fluoro-2′-hydroxy-[1,1′-biphenyl]-4-yl)acetamide] registered a GI50 of 300 to 3000 nM. For the same compound, the IC50 in assay [2] (setting [4]) fell in the range of 1 to 10 nM.

`C[C@@H]1CN(c2cc(-c3cc(F)cc(-c4ccc(-n5ccn(C)c5=O)c(Cl)c4)c3O)cc3c2nnn3C)CCN1` [Example 605, (R)-1-(3-chloro-5′-fluoro-2′-hydroxy-3′-(1-methyl-4-(3-methylpiperazin-1-yl)-1H-benzo[d][1,2,3]triazol-6-yl)-[1,1′-biphenyl]-4-yl)-3-methyl-1H-imidazol-2(3H)-one] gave a GI50 in assay [1] (setting [3]) of 0.3 to 30 nM. Besides, in assay [2] (setting [4]), the IC50 is 0.01 to 1 nM.

As to `Cc1cc(-c2ccc(-n3ccn(C)c3=O)c(Cl)c2)c(O)c(-c2cnc(N(C)C)c(N3CCC4(CCN4C(C)C)C3)c2)n1` (stereo not drawn) [Example 990, 1-(2-chloro-4-(6′-(dimethylamino)-3-hydroxy-5′-(1-isopropyl-1,6-diazaspiro[3.4]octan-6-yl)-6-methyl-[2,3′-bipyridin]-4-yl)phenyl)-3-methyl-1H-imidazol-2(3H)-one], the GI50 in assay [1] (setting [5]) lay in the range of 0.3 to 30 nM. Also, in assay [2] (setting [6]), the IC50 lay within 1 to 10 nM.

In turn, `Cn1ccn(-c2c(OC3CC3)ccc(-c3cc(F)cc(-c4cccc(N5CCN(C(C)(C)C)CC5)c4)c3O)c2Cl)c1=O` [Example 931, 1-(3″-(4-(tert-butyl)piperazin-1-yl)-2-chloro-4-cyclopropoxy-5′-fluoro-2′-hydroxy-[1,1′:3′,1″-terphenyl]-3-yl)-3-methyl-1,3-dihydro-2H-imidazol-2-one] registered a GI50 in assay [1] (setting [5]) of 300 to 3000 nM. The IC50 in assay [2] (setting [6]) is more than 100 nM.

Take `Cn1ccn(-c2ccc(-c3ccnc(-c4cccc(N5CCN(C(C)(C)C)CC5)c4)c3O)cc2Cl)c1=O` [Example 979, 1-(4-(2-(3-(4-(tert-butyl)piperazin-1-yl)phenyl)-3-hydroxypyridin-4-yl)-2-chlorophenyl)-3-methyl-1H-imidazol-2(3H)-one]: the GI50 in assay [1] (setting [5]) is 0.3 to 30 nM. The IC50 in assay [2] (setting [6]) is 1 to 10 nM.

Consider `COCCC1CN(c2cc(-c3cc(F)cc(-c4ccc(-n5ccn(C)c5=O)c(Cl)c4)c3O)ccn2)CCN1` (stereo not drawn) [Example 676, 1-(3-chloro-5′-fluoro-2′-hydroxy-3′-(2-(3-(2-methoxyethyl)piperazin-1-yl)pyridin-4-yl)-[1,1′-biphenyl]-4-yl)-3-methyl-1H-imidazol-2(3H)-one], for which the GI50 in assay [1] (setting [3]) lay within 0.3 to 30 nM. Moreover, the IC50 in assay [2] (setting [4]) lay in the range of 0.01 to 1 nM.

As for `CC(=O)Nc1ccc(-c2cccc(-c3cc(C#N)cc(N4CCNCC4)c3)c2O)cc1F` [Example 234, N-(3″-cyano-3-fluoro-2′-hydroxy-5″-(piperazin-1-yl)-[1,1′:3′,1″-terphenyl]-4-yl)acetamide], in assay [1] (setting [3]), the GI50 was in the range of 30 to 300 nM. Also, in assay [2] (setting [4]), the IC50 lay in the range of 1 to 10 nM.

For `C[C@@H]1CN(c2cc(-c3cc(F)cc(-c4ccc(-n5ccn(C)c5=O)c(Cl)c4)c3O)cc3c2ncn3C)CCN1` [Example 576], the GI50 in assay [1] (setting [3]) was in the range of 0.3 to 30 nM. Also, the IC50 in assay [2] (setting [4]) lay in the range of 0.01 to 1 nM.

In assay [1] (setting [3]), `Cn1ccn(-c2ccc(-c3cc(F)cc(-c4ccnc(N5CCCC6(CCN6)C5)c4)c3O)cc2Cl)c1=O` (stereo not drawn) [Example 688, 1-(3′-(2-(1,6-diazaspiro[3.5]nonan-6-yl)pyridin-4-yl)-3-chloro-5′-fluoro-2′-hydroxy-[1,1′-biphenyl]-4-yl)-3-methyl-1H-imidazol-2(3H)-one] had a GI50 of 0.3 to 30 nM. The IC50 in assay [2] (setting [4]) fell in the range of 0.01 to 1 nM.

Compound `CN1CCN(c2ccc(-c3cc(F)cc(-c4ccnc(N5CCNC(C(F)(F)F)C5)c4)c3O)cc2Cl)C1=O` (stereo not drawn) [Example 444, 1-(3-chloro-5′-fluoro-2′-hydroxy-3′-(2-(3-(trifluoromethyl)piperazin-1-yl)pyridin-4-yl)-[1,1′-biphenyl]-4-yl)-3-methylimidazolidin-2-one] returned a GI50 in assay [1] (setting [3]) of 300 to 3000 nM. Also, the IC50 in assay [2] (setting [4]) was 10 to 100 nM.

For `Cn1ccn(-c2ccc(-c3cc(F)cc(-c4cncc(N5CC[C@@](C)(N)C5)c4)c3O)cc2Cl)c1=O` [Example 742, (R)-1-(3′-(5-(3-amino-3-methylpyrrolidin-1-yl)pyridin-3-yl)-3-chloro-5′-fluoro-2′-hydroxy-[1,1′-biphenyl]-4-yl)-3-methyl-1H-imidazol-2(3H)-one], in assay [1] (setting [3]), the GI50 lay within 0.3 to 30 nM. In assay [2] (setting [4]), the IC50 was 0.01 to 1 nM.

As for `Cn1ccn(-c2ccc(-c3cc(F)cc(-c4cc(N5CC[C@H](N)C5)c5nccnc5c4)c3O)cc2Cl)c1=O` [Example 548, (S)-1-(3′-(8-(3-aminopyrrolidin-1-yl)quinoxalin-6-yl)-3-chloro-5′-fluoro-2′-hydroxy-[1,1′-biphenyl]-4-yl)-3-methyl-1H-imidazol-2(3H)-one], the GI50 in assay [1] (setting [3]) was 0.3 to 30 nM. In addition, the IC50 in assay [2] (setting [4]) lay within 1 to 10 nM.
